Assay results published in patent US6979560B1, “Eschericha bacteria overexpressing the yahn gene for feedback-insensitive amino acid production” (priority 1998, dated 2005).
Converted amounts (≈) assume the structure as drawn. Read-outs that look alike come from different tables or passages of the source.

Tests used:
Format in all cases: cell-based
E. coli TG1/pUC21 = assay: MIC of amino acids and analogues on M9 agar, control strain TG1/pUC21; conditions: for MIC: Escherichia coli
Method: (§1) Therefore, the effect of the pYEAS, pYAHN, PYFIK, and pYGGA plasmids on susceptibility of the strain TG1 to some amino acids and amino acid analogues was tested. Overnight cultures of the E. coli strains TG1/pYEAS, TG1/pYAHN, TG1/pYFIK, TG1/pYGGA and of the control strains TG1/pUC21, TG1/pUC19 and TG1/pOK12 grown in M9 minimal medium with an appropriate antibiotic on a rotary shaker (10^9 cfu/ml) were diluted 1:100 in M9 minimal medium and grown for 5 h in the same medium. Then the log phase cultures thus obtained were diluted and about 10^4 alive cells were applied to well-dried test plates with M9 agar containing doubling increments of amino acids or analogues. Thus the minimum inhibition concentration (MIC) of these compounds were examined.

E. coli TG1/pYGGA = assay: microbe, parasite or virus in culture; conditions: for MIC: Escherichia coli, TG1/PYGGA, read-out: MIC (μg/ml) for E. coli TG1, harboring the plasmid pYGGA
Description: as §1, with “The homology of the yeaS, yfiK, yahN and yggA gene products with the lysine transporter, LysE, of Corynebacterium glutamicum (Vrljic et al., Mol. Microbiol.,22, 815-826, 1996) and RhtB protein involved in homoserine excretion, indicates the analogues function for these proteins. It is well known that the increased expression of the genes involved in antibiotic and heavy metal efflux increases the level of resistance to the drugs (Nikaido, H. J. Bacteriology, 178, 5853-5859, 1996). Therefore,” for “Therefore,”

E. coli TG1/pYFIK = assay: microbe, parasite or virus in culture; conditions: for MIC: Escherichia coli, TG1/PYFIK, read-out: MIC (μg/ml) for E. coli TG1, harboring the plasmid pYFIK
Description: as §1, with “The homology of the yeaS, yfiK, yahN and yggA gene products with the lysine transporter, LysE, of Corynebacterium glutamicum (Vrljic et al., Mol. Microbiol.,22, 815-826, 1996) and RhtB protein involved in homoserine excretion, indicates the analogues function for these proteins. It is well known that the increased expression of the genes involved in antibiotic and heavy metal efflux increases the level of resistance to the drugs (Nikaido, H. J. Bacteriology, 178, 5853-5859, 1996). Therefore,” for “Therefore,”

E. coli TG1/pYAHN = assay: microbe, parasite or virus in culture; conditions: for MIC: Escherichia coli, TG1/PYAHN, read-out: MIC (μg/ml) for E. coli TG1, harboring the plasmid pYAHN
Description: as §1, with “The homology of the yeaS, yfiK, yahN and yggA gene products with the lysine transporter, LysE, of Corynebacterium glutamicum (Vrljic et al., Mol. Microbiol.,22, 815-826, 1996) and RhtB protein involved in homoserine excretion, indicates the analogues function for these proteins. It is well known that the increased expression of the genes involved in antibiotic and heavy metal efflux increases the level of resistance to the drugs (Nikaido, H. J. Bacteriology, 178, 5853-5859, 1996). Therefore,” for “Therefore,”

E. coli TG1/pYEAS = assay: microbe, parasite or virus in culture; conditions: for MIC: Escherichia coli, TG1/PYEAS, read-out: MIC (μg/ml) for E. coli TG1, harboring the plasmid pYEAS
Description: as §1, with “The homology of the yeaS, yfiK, yahN and yggA gene products with the lysine transporter, LysE, of Corynebacterium glutamicum (Vrljic et al., Mol. Microbiol.,22, 815-826, 1996) and RhtB protein involved in homoserine excretion, indicates the analogues function for these proteins. It is well known that the increased expression of the genes involved in antibiotic and heavy metal efflux increases the level of resistance to the drugs (Nikaido, H. J. Bacteriology, 178, 5853-5859, 1996). Therefore,” for “Therefore,”

[1] = E. coli TG1 harboring pUC21 (control vector), M9 agar, doubling increments, read-out: MIC (μg/ml) for E. coli TG1, harboring the plasmid pUC21

## CN(C)CC(N)C(=O)O (racemic) [4-aza-DL-leucine]
E. coli TG1/pUC21; [1]
  MIC: 100 µg/mL
E. coli TG1/pYGGA
  MIC: 100 µg/mL (≈ 0.757 mM)
E. coli TG1/pYFIK
  MIC: 100 µg/mL (≈ 0.757 mM)
E. coli TG1/pYAHN
  MIC: 100 µg/mL (≈ 0.757 mM)
E. coli TG1/pYEAS
  MIC: 100 µg/mL (≈ 0.757 mM)

## N[C@@H](CCC(=O)O)C(=O)[O-].[Na+] [L-glutamate (Na salt)]
E. coli TG1/pUC21; E. coli TG1 harboring pUC21 (control vector), M9 agar, doubling increments
  MIC (μg/ml) for E. coli TG1, harboring the plasmid pUC21: 5000 μg/ml
E. coli TG1/pYGGA; E. coli TG1 harboring pYGGA (multicopy yggA), M9 agar, doubling increments
  MIC (μg/ml) for E. coli TG1, harboring the plasmid pYGGA: 5000 μg/ml
E. coli TG1/pYFIK; E. coli TG1 harboring pYFIK (multicopy yfiK), M9 agar, doubling increments
  MIC (μg/ml) for E. coli TG1, harboring the plasmid pYFIK: 10000 μg/ml
E. coli TG1/pYAHN; E. coli TG1 harboring pYAHN (multicopy yahN), M9 agar, doubling increments
  MIC (μg/ml) for E. coli TG1, harboring the plasmid pYAHN: 5000 μg/ml
E. coli TG1/pYEAS; E. coli TG1 harboring pYEAS (multicopy yeaS), M9 agar, doubling increments
  MIC (μg/ml) for E. coli TG1, harboring the plasmid pYEAS: 20000 μg/ml

## NCCCC[C@H](N)C(=O)O [L-lysine]
E. coli TG1/pUC21; TG1/PUC21, read-out: MIC (μg/ml) for E. coli TG1, harboring the plasmid pUC21
  MIC: 5000 µg/mL
E. coli TG1/pYGGA
  MIC: 15000 µg/mL (≈ 103 mM)
E. coli TG1/pYFIK
  MIC: 7500 µg/mL (≈ 51.3 mM)
E. coli TG1/pYAHN
  MIC: 5000 µg/mL (≈ 34.2 mM)
E. coli TG1/pYEAS
  MIC: 7500 µg/mL (≈ 51.3 mM)

## CC(C)[C@H](N)C(=O)O [L-valine]
E. coli TG1/pUC21; [1]
  MIC: 0.5 µg/mL
E. coli TG1/pYGGA
  MIC: 0.5 µg/mL (≈ 0.00427 mM)
E. coli TG1/pYFIK
  MIC: 0.5 µg/mL (≈ 0.00427 mM)
E. coli TG1/pYAHN
  MIC: 0.5 µg/mL (≈ 0.00427 mM)
E. coli TG1/pYEAS
  MIC: 0.5 µg/mL (≈ 0.00427 mM)

## O=C(O)[C@@H]1CCCN1 [L-proline]
E. coli TG1/pUC21; [1]
  MIC: 1000 µg/mL
E. coli TG1/pYGGA
  MIC: 1000 µg/mL (≈ 8.69 mM)
E. coli TG1/pYFIK
  MIC: 5000 µg/mL (≈ 43.4 mM)
E. coli TG1/pYAHN
  MIC: 2000 µg/mL (≈ 17.4 mM)
E. coli TG1/pYEAS
  MIC: 2000 µg/mL (≈ 17.4 mM)

## NCCSC[C@H](N)C(=O)O [AEC, S-(2-aminoethyl)-L-cysteine]
E. coli TG1/pUC21; [1]
  MIC: 5 µg/mL
E. coli TG1/pYGGA
  MIC: 200 µg/mL (≈ 1.22 mM)
E. coli TG1/pYFIK
  MIC: 10 µg/mL (≈ 0.0609 mM)
E. coli TG1/pYAHN
  MIC: 5 µg/mL (≈ 0.0304 mM)
E. coli TG1/pYEAS
  MIC: 5 µg/mL (≈ 0.0304 mM)

## N[C@@H](Cc1c[nH]cn1)C(=O)O [L-histidine]
E. coli TG1/pUC21; [1]
  MIC: 5000 µg/mL
E. coli TG1/pYGGA
  MIC: 5000 µg/mL (≈ 32.2 mM)
E. coli TG1/pYFIK
  MIC: 10000 µg/mL (≈ 64.5 mM)
E. coli TG1/pYAHN
  MIC: 5000 µg/mL (≈ 32.2 mM)
E. coli TG1/pYEAS
  MIC: 30000 µg/mL (≈ 193 mM)

## C[C@@H](O)[C@H](N)C(=O)O [L-threonine]
E. coli TG1/pUC21; [1]
  MIC: 30000 µg/mL
E. coli TG1/pYGGA
  MIC: 30000 µg/mL (≈ 252 mM)
E. coli TG1/pYFIK
  MIC: 40000 µg/mL (≈ 336 mM)
E. coli TG1/pYAHN
  MIC: 30000 µg/mL (≈ 252 mM)
E. coli TG1/pYEAS
  MIC: 50000 µg/mL (≈ 420 mM)

## N=C(N)NCCC[C@H](N)C(=O)O [L-arginine]
E. coli TG1/pUC21; [1]
  MIC: 10000 µg/mL
E. coli TG1/pYGGA
  MIC: 20000 µg/mL (≈ 115 mM)
E. coli TG1/pYFIK
  MIC: 10000 µg/mL (≈ 57.4 mM)
E. coli TG1/pYAHN
  MIC: 10000 µg/mL (≈ 57.4 mM)
E. coli TG1/pYEAS
  MIC: 10000 µg/mL (≈ 57.4 mM)

## CCC(N)C(=O)O (stereo not drawn) [α-aminobutyric acid]
E. coli TG1/pUC21; [1]
  MIC: 2500 µg/mL
E. coli TG1/pYGGA
  MIC: 2500 µg/mL (≈ 24.2 mM)
E. coli TG1/pYFIK
  MIC: 5000 µg/mL (≈ 48.5 mM)
E. coli TG1/pYAHN
  MIC: 2500 µg/mL (≈ 24.2 mM)
E. coli TG1/pYEAS
  MIC: > 10000 µg/mL

## N[C@@H](CCO)C(=O)O [L-homoserine]
E. coli TG1/pUC21; [1]
  MIC: 500 µg/mL
E. coli TG1/pYGGA
  MIC: 500 µg/mL (≈ 4.2 mM)
E. coli TG1/pYFIK
  MIC: 1000 µg/mL (≈ 8.39 mM)
E. coli TG1/pYAHN
  MIC: 500 µg/mL (≈ 4.2 mM)
E. coli TG1/pYEAS
  MIC: 1000 µg/mL (≈ 8.39 mM)

## CCC(O)C(N)C(=O)O (stereo not drawn) [AHVA, α-amino-β-hydroxyvaleric-acid]
E. coli TG1/pUC21; [1]
  MIC: 100 µg/mL
E. coli TG1/pYGGA
  MIC: 100 µg/mL (≈ 0.751 mM)
E. coli TG1/pYFIK
  MIC: 200 µg/mL (≈ 1.5 mM)
E. coli TG1/pYAHN
  MIC: 100 µg/mL (≈ 0.751 mM)
E. coli TG1/pYEAS
  MIC: 100 µg/mL (≈ 0.751 mM)
